For this data set the following is noted: two six-day rabbits (4 mg device), spinal cord puncture at L7 just prior to euthanasia.

For `CCN(CC)CC(=O)Nc1c(C)cccc1C` [lidocaine], the “lidocaine in cerebrospinal fluid” value was “not detected”.

The record behind these values is patent US12576253B2, “Drug delivery device with intravesical tolerability” (priority 2009, dated 2026).
